As usually defined, the pIC50 is the IC50 on a negative log10 scale, so that one unit is a factor of ten.

In patent US6887873B2, “Triazine derivatives and their application as antitelomerase agents” (Aventis Pharma S.A., priority 2001, dated 2005) one finds IC50 data, which are given here for 27 compounds.

Data set [1] deals with A549 cells. The data set can be described thus: Cytotoxic activity on human tumour line A549, neutral red, 96 hours. The class given is cell-based. The conditions noted are these: read-out: Cytotox. A549 IC50. On the procedure: The cytotoxic biological activity on human tumour lines is determined according to the following experimental protocol:
The human cell lines A549 are obtained from ATCC (American Type Culture Collection, Rockville, USA). The A549 cells are cultured in a layer in a culture flask in RPMI 1640 medium containing L-glutamine at 2 mM, penicillin 200 U/ml, streptomycin 200 μg/ml and supplemented with 10% heat-inactivated foetal calf serum. The KB cells are cultured in a layer in a culture flask in Dulbelco's medium containing L-glutamine at 2 mM, penicillin 200 U/ml, streptomycin 200 μg/ml and supplemented with 10% heat-inactivated foetal calf serum.
The cells at the exponential growth phase are trypsinized, washed in 1×PBS and are inoculated in 96-well microplates (Costar) in an amount of 4×10^4 cells/ml for A549 and of 1.5×10^4 cells/ml (0.2 ml/well) and then incubated for 96 hours in the presence of variable concentrations of product to be studied (10, 1, 0.1 and 0.01 μM, each point in quadruplicate). 16 hours before the end of the incubation, 0.02% final of neutral red is added to each well. At the end of the incubation, the cells are washed with 1×PBS and lysed with 1% sodium lauryl sulphate. The cellular incorporation of the dye, which reflects cellular growth, is evaluated by spectro-photometry at a wavelength of 540 nm for each sample with the aid of a Dynatech MR5000 reading apparatus.
For each compound concentration tested, the results are expressed as percentage of inhibition of cellular growth and calculated from the untreated control and the culture medium free of cells (blank) according to the following formula: (compound value−blank value/cell control value−blank value)×100.
The concentration of compound inducing a 50% inhibition of growth (IC50) is determined with the aid of a semilogarithmic graphical representation of the inhibition values obtained as a function of each of the compound concentrations tested.
A compound is considered to be active as cytotoxic agent if the concentration inhibiting the growth of the tumour cells tested by 50% is in particular less than 10 μM.

Data set [2] deals with human telomerease (HL60 cell extract). The data set can be described thus: Antitelomerease activity: extension of oligonucleotide TS followed by PCR amplification, with HL60 extract. Type of data set: biochemical. The conditions noted are these: read-out: TRAP IC50. The gist of the method:
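HL60 CHAPS-lysate extract extends TS primer (15 min, 30 °C) with compound at 10, 1, 0.1 and 0.01 µM, followed by 30-cycle PCR with TS and CXext. Products resolved on 12% acrylamide and quantified; % inhibition versus enzyme control and blank, IC50 read from semilog plot.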

Molecules are shown by their SMILES. pIC50: −log10 of the molar value. Where two headings read alike, the source gives them in different places.

Regarding `Cc1cc(N)c2cc(Nc3nc(Nc4ccc5nc(C)cc(N)c5c4)nc(N(Cc4ccccc4)C4CN5CCC4CC5)n3)ccc2n1` (stereo not drawn) [Example 92], the pIC50 in data set [1] (Homo sapiens, A549, A549) is 5.11; in data set [2], 6.37.
Taken in the same sequence, the figures for `Cc1cc(N)c2cc(Nc3nc(Nc4ccc5nc(C)cc(N)c5c4)nc(NC4CCN(Cc5ccccc5)CC4)n3)ccc2n1` [Example 93] were 5.03 and 6.43.
Taken in the same sequence, the figures for `Cc1cc(N)c2cc(Nc3nc(Nc4ccc5nc(C)cc(N)c5c4)nc(Oc4ccccc4Cl)n3)ccc2n1` [Example 103] were 4.95 and 6.55.
Regarding `COc1cccc(Oc2nc(Nc3ccc4nc(C)cc(N)c4c3)nc(Nc3ccc4nc(C)cc(N)c4c3)n2)c1` [Example 104], the pIC50 in data set [1] (Homo sapiens, A549, A549) was 4.94; in data set [2], 5.92.
In the same order, the values of `Cc1cc(N)c2cc(Nc3nc(Nc4ccc5nc(C)cc(N)c5c4)nc(OCCN(C)Cc4ccccc4)n3)ccc2n1` [Example 105] are 4.94 and 6.62.
Taken in the same sequence, the figures for `Cc1cc(N(C)C)c2cc(Nc3nc(Nc4ccc5nc(C)cc(N(C)C)c5c4)nc(Oc4ccncc4)n3)ccc2n1` [Example 115, 2,4-bis(4-dimethylamino-2-methylquinolin-6-yl)amino-6-(pyridin-4-yl)oxy-[1,3,5]triazine] were 5.80 and 6.30.
Turning to `Cc1cc(N)c2cc(Nc3nc(Nc4ccc5nc(C)cc(N)c5c4)nc(Sc4ccccc4Cl)n3)ccc2n1` [Example 118], the negative-log IC50 (pIC50) in data set [1] (Homo sapiens, A549, A549) is 4.86; in data set [2] it was 5.85.
On to `Cc1cc(N)c2cc(Nc3nc(Nc4ccc5nc(C)cc(N)c5c4)nc(Sc4ccccn4)n3)ccc2n1` [Example 120], for which the negative logarithm of the IC50 (pIC50) in data set [1] (Homo sapiens, A549, A549) was 4.75; in data set [2] it was 6.42.
In the same order, the values of `COc1ccc(CSc2nc(Nc3ccc4nc(C)cc(N)c4c3)nc(Nc3ccc4nc(C)cc(N)c4c3)n2)cc1` [Example 124] are 5.21 and 6.05.
Take `Cc1cc(N)c2cc(Nc3nc(Nc4ccc5nc(C)cc(N)c5c4)nc(Sc4ncccn4)n3)ccc2n1` [Example 126]: the negative-log IC50 (pIC50) in data set [1] (Homo sapiens, A549, A549) is 4.94; in data set [2] it was 6.17.
In the same order, the values of `Cc1cc(C)nc(Sc2nc(Nc3ccc4nc(C)cc(N)c4c3)nc(Nc3ccc4nc(C)cc(N)c4c3)n2)n1` [Example 127] are 4.80 and 6.08.
Taken in the same sequence, the figures for `Cc1cc(N)c2cc(Nc3nc(Nc4ccc5nc(C)cc(N)c5c4)nc(Sc4ccc5ccccc5n4)n3)ccc2n1` [Example 128, 2,4-bis(4-amino-2-methylquinolin-6-yl)amino-6-(quinolin-2-yl)thio-[1,3,5]triazine] were 5.54 and 6.41.
As for `Cc1cc(N(C)C)c2cc(Nc3nc(Nc4ccc5nc(C)cc(N(C)C)c5c4)nc(N4CCCN(C)CC4)n3)ccc2n1` [Example 135, 2,4-bis(4-dimethylamino-2-methylquinolin-6-yl)amino-6-(1-methylhomopiperazin-4-yl)-[1,3,5]triazine], the pIC50 in data set [1] (Homo sapiens, A549, A549) was 7.15; in data set [2] it was 6.40.
In the case of `Cc1cc(N(C)C)c2cc(Nc3nc(Nc4ccc5nc(C)cc(N(C)C)c5c4)nc(N4CCN(CCCN(C)C)CC4)n3)ccc2n1` [Example 136, 2,4-bis(4-dimethylamino-2-methylquinolin-6-yl)amino-6-[1-(3-dimethylaminopropyl)piperazin-4-yl]-[1,3,5]triazine], the negative-log IC50 (pIC50) was 7.59 in data set [1] (Homo sapiens, A549, A549) and 6.92 in data set [2].
In the same order, the values of `CCCN(CCC)CCN1CCN(c2nc(Nc3ccc4nc(C)cc(N(C)C)c4c3)nc(Nc3ccc4nc(C)cc(N(C)C)c4c3)n2)CC1` [Example 137, 2,4-bis(4-dimethylamino-2-methylquinolin-6-yl)amino-6-[1-(2-dipropylaminoethyl)piperazin-4-yl]-[1,3,5]triazine] are 6.82 and 6.00.
In the case of `Cc1cc(N(C)C)c2cc(Nc3nc(Nc4ccc5nc(C)cc(N(C)C)c5c4)nc(N(C)C4CCN(C)CC4)n3)ccc2n1` [Example 138, 2,4-bis(4-dimethylamino-2-methylquinolin-6-yl)amino-6-[N-(1-methylpiperidin-4-yl)-N-methylamino]-[1,3,5]triazine], the pIC50 in data set [1] (Homo sapiens, A549, A549) was 7.21; in data set [2] it was 6.30.
Taken in the same sequence, the figures for `Cc1cc(N(C)C)c2cc(Nc3nc(Nc4ccc5nc(C)cc(N(C)C)c5c4)nc(N4CCCN(CCCN5CCCC5)CC4)n3)ccc2n1` [Example 139] were 7.35 and 6.22.
In the case of `Cc1cc(N(C)C)c2cc(Nc3nc(NCCN4CCN(Cc5ccccc5)CC4)nc(Nc4ccc5nc(C)cc(N(C)C)c5c4)n3)ccc2n1` [Example 140], the pIC50 in data set [1] (Homo sapiens, A549, A549) was 6.29; in data set [2], 6.00.
Regarding `Cc1cc(N(C)C)c2cc(Nc3nc(Nc4ccc5nc(C)cc(N(C)C)c5c4)nc(N4CCN(CCOCCO)CC4)n3)ccc2n1` [Example 141, 2,4-bis(4-dimethylamino-2-methylquinolin-6-yl)amino-6-{[1-2-(2-hydroxyethyl)oxyethyl]piperazin-4-yl}-[1,3,5]triazine], the pIC50 in data set [1] (Homo sapiens, A549, A549) is 7.02; in data set [2] it was 6.05.
In the same order, the values of `Cc1cc(N(C)C)c2cc(Nc3nc(NCC[N+](C)(C)C)nc(Nc4ccc5nc(C)cc(N(C)C)c5c4)n3)ccc2n1` [Example 142] are 5.81 and 6.00.
With `Cc1cc(N(C)C)c2cc(Nc3nc(Nc4ccc5nc(C)cc(N(C)C)c5c4)nc(N4CCN(C5CCCC5)CC4)n3)ccc2n1` [Example 143], the negative-log IC50 (pIC50) in data set [1] (Homo sapiens, A549, A549) is 6.28; in data set [2], 6.40.
Taken in the same sequence, the figures for `Cc1cc(N(C)C)c2cc(Nc3nc(Nc4ccc5nc(C)cc(N(C)C)c5c4)nc(N4CCN(c5ccncc5)CC4)n3)ccc2n1` [Example 144, 2,4-bis(4-dimethylamino-2-methylquinolin-6-yl)amino-6-[1-(pyridin-4-yl)piperazin-4-yl]-[1,3,5]triazine] were 7.40 and 6.40.
As to `Cc1cc(N(C)C)c2cc(Nc3nc(NCc4ccncc4)nc(Nc4ccc5nc(C)cc(N(C)C)c5c4)n3)ccc2n1` [Example 145], the pIC50 was 6.38 in data set [1] (A549) and 6.00 in data set [2].
For the compound `CCN(CCN(C)C)c1nc(Nc2ccc3nc(C)cc(N(C)C)c3c2)nc(Nc2ccc3nc(C)cc(N(C)C)c3c2)n1` [Example 146], the negative-log IC50 (pIC50) in data set [1] (Homo sapiens, A549, A549) is 6.76; in data set [2], 6.22.
In the case of `CC1=NCCN1c1nc(Nc2ccc3nc(C)cc(N(C)C)c3c2)nc(Nc2ccc3nc(C)cc(N(C)C)c3c2)n1` [Example 148], the pIC50 in data set [1] (Homo sapiens, A549, A549) is 5.82; in data set [2] it was 5.82.
For the compound `Cc1cc(N(C)C)c2cc(Nc3nc(Nc4ccc5nc(C)cc(N(C)C)c5c4)nc(N4CCC[C@H]4CN4CCCC4)n3)ccc2n1` [Example 149, 2,4-bis(4-dimethylamino-2-methylquinolin-6-yl)amino-6-[2(S)-(pyrrolidin-1-yl)methylpyrrolidin-1-yl]-[1,3,5]triazine], the negative-log IC50 (pIC50) was 7.02 in data set [1] (Homo sapiens, A549, A549) and 5.60 in data set [2].
In the same order, the values of `CC(=O)NCCNc1nc(Nc2ccc3nc(C)cc(N(C)C)c3c2)nc(Nc2ccc3nc(C)cc(N(C)C)c3c2)n1` [Example 150] are 5.61 and 5.60.
